{"source": "patent US20130072519A1", "about": "“2-PHENYL BENZOYLAMIDES” (priority 2010, published 2013)", "data": [{"system": "Apolipoprotein B Secretion from HepG2 Cells", "test": "Inhibition of Apolipoprotein B secretion from HepG2 cells (ELISA)", "type": "cell-based, human", "conditions": "HepG2 cells, 22-24 hours incubation, ApoB ELISA; Low/High IC50 columns give the 95% confidence interval", "description": "(§1) Inhibition of Apolipoprotein B Secretion from HepG2 Cells\n(§2) To assess the inhibitory effect of the compounds of the invention on ApoB production, an endogenously ApoB producing cell line, HEPG2, was implemented in an in vitro ELISA assay. HEPG2 cells are plated at 25,000 per well (96-well plates) in media consisting of DMEM Low Glucose, 1% NEAA (non-essential amino acids), 10% FBS (heat inactivated), 1% L-Glutamine, and 1% Antimycotic-Antibiotic and incubated for 16-18 hours at 37° C. and 5% CO2. After the 16-18 hour incubation, a 12 point half-log serial of the inhibitor (1000 nM-0.003 nM) is prepared, and 1.5 ul of the serial dilution is added to HEPG2 cells, which have had their media decanted and replaced with 148 ul of fresh media, and the cells are incubated for 22-24 hours at 37° C. and 5% CO2. Two and a half hours before the 22-24 hour incubation period is completed, Nunc Maxisorp plates are coated with 100 ul of primary (coating) antibody (goat anti-apoB), diluting to a ratio of 1:1000 in 1% Carbonate-Bicarbonate Coating Buffer and incubated for at least 2 hours at room temperature before the primary antibody is decanted and the wells of the microplate are washed with 200 ul of washing buffer (1% PBS, 0.05% Tween20). Next, 200 ul of blocking buffer (1% PBS, 1:500 Western Block, 5 mg/ml BSA) is added to the wells of the microplate, and incubated for at least 30 mins. Following the 22-24 hours incubation period, cell plates are removed from the incubator, 20 ul of supernatant from each well is aspirated, added to a corresponding well in 96 well plate containing 140 ul of diluent (1:2-Blocking Buffer: Washing Buffer), and mixed. Then, 120 ul is aspirated from the dilutent-supernatant plate, added to the blocked Nunc Maxisorp 96 well plate, and placed at room temperature on a shaker to mix for at least 2 hours. The secondary (capture) antibody (mouse anti-human apoB) is prepared at a ratio of 1:4000, and the detection antibody (goat anti-mouse HRP conjugated antibody) at a ratio of 1:10,000. For each antibody, 100 ul is added to each well of the microplate and the microplate is incubated at room temperature for 2 hours, washing the microplates between each antibody addition. Colorimetric development is achieved by adding 50 ul of TMB reagent to each well, incubating for 5 mins at room temperature, then adding 50 ul of 2M Sulfuric Acid to each well. Absorbance at 450 nm is monitored in an Envision plate reader to measure the amount of ApoB formed.\n(§3) Results reported as average IC50, low and high IC50 range (95% confidence interval).", "units": {"IC50": "pM"}, "values": [{"smiles": "CCOC(=O)C1(COC(=O)Cc2ccc(NC(=O)c3ccccc3-c3ccc(C(F)(F)F)cc3)c(C(=O)N(C)C)c2)OC(=O)c2ccccc21", "note": "(stereo not shown) [Example 31]", "IC50": 10100}, {"smiles": "CCOC(=O)C1(COC(=O)Cc2ccc(NC(=O)c3ccccc3-c3ccc(C(F)(F)F)cc3)c(C(=O)N(C)C)c2)OC(=O)c2ccccc21", "note": "(stereo not shown) [Example 32]", "IC50": 45500}, {"smiles": "COC(=O)C1(COC(=O)Cc2ccc(NC(=O)c3ccccc3-c3ccc(C(F)(F)F)cc3)c(C(=O)N(C)C)c2)CCc2ccccc21", "note": "(stereo not shown) [Example 34]", "IC50": 5540}, {"smiles": "CCOC(=O)C1(COC(=O)Cc2ccc(NC(=O)c3ccccc3-c3ccc(C(F)(F)F)cc3)c(C(=O)N(C)C)c2)CCc2ccccc21", "note": "(stereo not shown) [Example 35]", "IC50": 460}, {"smiles": "CCOC(=O)C1(COC(=O)Cc2ccc(NC(=O)c3ccccc3-c3ccc(C(F)(F)F)cc3)c(C(=O)N(C)C)c2)CCc2ccccc21", "note": "(stereo not shown) [Example 36]", "IC50": 4600}, {"smiles": "CCOC(=O)C1(COC(=O)Cc2ccc(NC(=O)c3ccccc3-c3ccc(C(F)(F)F)cc3)c(C(=O)N(C)C)c2)CCc2cccnc21", "note": "(stereo not shown) [Example 38]", "IC50": 19900}, {"smiles": "CCOC(=O)C1(COC(=O)Cc2ccc(NC(=O)c3ccccc3-c3ccc(C(F)(F)F)cc3)c(C(=O)N(C)C)c2)CCc2cccnc21", "note": "(stereo not shown) [Example 39]", "IC50": 2340}, {"smiles": "CCOC(=O)C1(COC(=O)Cc2ccc(NC(=O)c3cccc(C)c3-c3ccc(C(F)(F)F)cc3)c(C(=O)N(C)C)c2)c2ncccc2C(=O)N1CC", "note": "(stereo not shown) [Example 47, Ethyl 7-({2-[3-(Dimethylcarbamoyl)-4-({[6-methyl-4′-(trifluoromethyl)biphenyl-2-yl]carbonyl}amino)phenyl]acetoxy}methyl)-6-ethyl-5-oxo-6,7-dihydro-5H-pyrrolo[3,4-b]pyridine-7-carboxylate]", "IC50": 7560}, {"smiles": "CCOC(=O)C1(COC(=O)Cc2ccc(NC(=O)c3cccc(C)c3-c3ccc(C(F)(F)F)cc3)c(C(=O)N(C)C)c2)c2ncccc2C(=O)N1CC", "note": "(stereo not shown) [Example 48, Ethyl 7-({2-[3-(Dimethylcarbamoyl)-4-({[6-methyl-4′-(trifluoromethyl)biphenyl-2-yl]carbonyl}amino)phenyl]acetoxy}methyl)-6-ethyl-5-oxo-6,7-dihydro-5H-pyrrolo[3,4-b]pyridine-7-carboxylate]", "IC50": 203}]}, {"system": "Apolipoprotein B Secretion from HepG2 Cells", "test": "Inhibition of Apolipoprotein B secretion from HepG2 cells (ELISA)", "type": "cell-based, human", "conditions": "Homo sapiens, HepG2, HepG2 cells, 22-24 hours incubation, ApoB ELISA; Low/High IC50 columns give the 95% confidence interval", "description": "as §1, §2, §3", "units": {"IC50": "pM"}, "values": [{"smiles": "COC(=O)C1(COC(=O)Cc2ccc(NC(=O)c3ccccc3-c3ccc(C(F)(F)F)cc3)c(C(=O)N(C)C)c2)CCc2ccccc21", "note": "(stereo not shown) [Example 33]", "IC50": 6500}, {"smiles": "CCOC(=O)C1(COC(=O)Cc2ccc(NC(=O)c3ccccc3-c3ccc(C(F)(F)F)cc3)c(C)c2)OC(=O)c2ccccc21", "note": "(stereo not shown) [Example 40]", "IC50": 159000}, {"smiles": "CCOC(=O)C1(COC(=O)Cc2ccc(NC(=O)c3cccc(C)c3-c3ccc(OC(C)C)cc3)c(C(=O)N(C)C)c2)c2ccccc2C(=O)N1C", "note": "(stereo not shown) [Example 51, ethyl 1-({2-[3-(dimethylcarbamoyl)-4-{[(4′-isopropoxy-6-methylbiphenyl-2-yl)carbonyl]amino}phenyl]acetoxy}methyl)-2-methyl-3-oxoisoindoline-1-carboxylate]", "IC50": 159}, {"smiles": "CCOC(=O)C1(COC(=O)Cc2ccc(NC(=O)c3cccc(C)c3-c3ccc(C(C)C)cc3)c(C(=O)N(C)C)c2)c2ccccc2C(=O)N1C", "note": "(stereo not shown) [Example 53]", "IC50": 242}, {"smiles": "CCOC(=O)C1(COC(=O)Cc2ccc(NC(=O)c3ccccc3-c3ccc(OC(C)C)cc3)c(C(=O)N(C)C)c2)c2ccccc2C(=O)N1C", "note": "(stereo not shown) [Example 54, ethyl 1-({2-[3-(dimethylcarbamoyl)-4-{[(4′-isopropoxybiphenyl-2-yl)carbonyl]amino}phenyl]acetoxy}methyl)-2-methyl-3-oxoisoindoline-1-carboxylate]", "IC50": 124}, {"smiles": "CCOC(=O)C1(COC(=O)Cc2ccc(NC(=O)c3ccc(C(F)(F)F)cc3-c3ccc(C(F)(F)F)cc3)c(C(=O)N(C)C)c2)c2ccccc2C(=O)N1C", "note": "(stereo not shown) [Example 55, ethyll-({2-[4-({[4′,5-bis(trifluoromethyl)biphenyl-2-yl]carbonyl}amino)-3-(dimethylcarbamoyl)phenyl]acetoxy}methyl)-2-methyl-3-oxoisoindoline-1-carboxylate]", "IC50": 154}, {"smiles": "CCOC(=O)C1(COC(=O)Cc2ccc(NC(=O)c3cccc(C)c3-c3ccc(OC(C)C)cc3)c(C(=O)N(C)C)c2)CCc2cccnc21", "note": "(stereo not shown) [Example 57, ethyl 7-({2-[3-(dimethylcarbamoyl)-4-{[(4′-isopropoxy-6-methylbiphenyl-2-yl)carbonyl]amino}phenyl]acetoxy}methyl)-6,7-dihydro-5H-cyclopenta[b]pyridine-7-carboxylate]", "IC50": 1370}, {"smiles": "CCOC(=O)C1(COC(=O)Cc2ccc(NC(=O)c3ccc(C(F)(F)F)cc3-c3ccc(C(F)(F)F)cc3)c(C(=O)N(C)C)c2)CCc2cccnc21", "note": "(stereo not shown) [Example 58, ethyl 7-({2-[4-({[4′,5-bis(trifluoromethyl)biphenyl-2-yl]carbonyl}amino)-3-(dimethylcarbamoyl)phenyl]acetoxy}methyl)-6,7-dihydro-5H-cyclopenta[b]pyridine-7-carboxylate]", "IC50": 7180}, {"smiles": "CCOC(=O)[C@]1(COC(=O)Cc2ccc(NC(=O)c3cccc(C)c3-c3ccc(C(F)(F)F)cc3)c(C(=O)N3CCCCC3)c2)c2ccccc2C(=O)N1C", "note": "[Example 62, ethyl (1R)-2-methyl-1-({2-[4-({[6-methyl-4′-(trifluoromethyl)biphenyl-2-yl]carbonyl}amino)-3-(piperidin-1-ylcarbonyl)phenyl]acetoxy}methyl)-3-oxoisoindoline-1-carboxylate]", "IC50": 1170}, {"smiles": "CCOC(=O)[C@]1(COC(=O)Cc2ccc(NC(=O)c3cccc(OC)c3-c3ccc(OC(C)C)cc3)c(C(=O)N(C)C)c2)c2ccccc2C(=O)N1C", "note": "[Example 63, ethyl (1R)-1-({2-[3-(dimethylcarbamoyl)-4-{[(4′-isopropoxy-6-methoxybiphenyl-2-yl)carbonyl]amino}phenyl]acetoxy}methyl)-2-methyl-3-oxoisoindoline-1-carboxylate]", "IC50": 119}, {"smiles": "CCOC(=O)[C@]1(COC(=O)Cc2ccc(NC(=O)c3cccc(OC)c3-c3ccccc3)c(C(=O)N(C)C)c2)c2ccccc2C(=O)N1C", "note": "[Example 64, ethyl (1R)-1-({2-[3-(dimethylcarbamoyl)-4-{[(6-methoxybiphenyl-2-yl)carbonyl]amino}phenyl]acetoxy}methyl)-2-methyl-3-oxoisoindoline-1-carboxylate]", "IC50": 536}, {"smiles": "CCOC(=O)[C@]1(COC(=O)Cc2ccc(NC(=O)c3ccccc3-c3ccc(C(C)(C)C)cc3)c(C(=O)N(C)C)c2)c2ccccc2C(=O)N1C", "note": "[Example 66, ethyl (1R)-1-({2-[4-{[(4′-tert-butylbiphenyl-2-yl)carbonyl]amino}-3-(dimethylcarbamoyl)phenyl]acetoxy}methyl)-2-methyl-3-oxoisoindoline-1-carboxylate]", "IC50": 206}, {"smiles": "CCOC(=O)[C@]1(COC(=O)Cc2ccc(NC(=O)c3cccc(C)c3-c3ccc(C(C)(C)C)cc3)c(C(=O)N(C)C)c2)c2ccccc2C(=O)N1C", "note": "[Example 67, ethyl (1R)-1-({2-[4-{[(4′-tert-butyl-6-methylbiphenyl-2-yl)carbonyl]amino}-3-(dimethylcarbamoyl)phenyl]acetoxy}methyl)-2-methyl-3-oxoisoindoline-1-carboxylate]", "IC50": 244}, {"smiles": "CCOC(=O)[C@]1(COC(=O)Cc2ccc(NC(=O)c3ccc(C)cc3-c3ccc(C(C)(C)C)cc3)c(C(=O)N(C)C)c2)c2ccccc2C(=O)N1C", "note": "[Example 68, ethyl (1R)-1-({2-[4-{[(4′-tert-butyl-5-methylbiphenyl-2-yl)carbonyl]amino}-3-(dimethylcarbamoyl)phenyl]acetoxy}methyl)-2-methyl-3-oxoisoindoline-1-carboxylate]", "IC50": 178}, {"smiles": "CCOC(=O)[C@]1(COC(=O)Cc2ccc(NC(=O)c3ccc(OC)cc3-c3ccc(C(C)(C)C)cc3)c(C(=O)N(C)C)c2)c2ccccc2C(=O)N1C", "note": "[Example 69, ethyl (1R)-1-({2-[4-{[(4′-tert-butyl-5-methoxybiphenyl-2-yl)carbonyl]amino}-3-(dimethylcarbamoyl)phenyl]acetoxy}methyl)-2-methyl-3-oxoisoindoline-1-carboxylate]", "IC50": 180}, {"smiles": "CCOC(=O)[C@]1(COC(=O)Cc2ccc(NC(=O)c3ccccc3-c3ccc(C(C)C)cc3)c(C(=O)N(C)C)c2)c2ccccc2C(=O)N1C", "note": "[Example 73, ethyl (1R)-1-({2-[3-(dimethylcarbamoyl)-4-{[(4′-isopropylbiphenyl-2-yl)carbonyl]amino}phenyl]acetoxy}methyl)-2-methyl-3-oxoisoindoline-1-carboxylate]", "IC50": 162}]}]}
